{"source": "ChEMBL document CHEMBL5291721", "about": "“A preclinical secondary pharmacology resource illuminates target-adverse drug reaction associations of marketed drugs” (Nat Commun, 2023); also: assay procedure not described here", "key": {"[1]": {"target": "5-hydroxytryptamine receptor 2B (Homo sapiens, UniProt P41595)", "sequence (P41595 whole entry)": "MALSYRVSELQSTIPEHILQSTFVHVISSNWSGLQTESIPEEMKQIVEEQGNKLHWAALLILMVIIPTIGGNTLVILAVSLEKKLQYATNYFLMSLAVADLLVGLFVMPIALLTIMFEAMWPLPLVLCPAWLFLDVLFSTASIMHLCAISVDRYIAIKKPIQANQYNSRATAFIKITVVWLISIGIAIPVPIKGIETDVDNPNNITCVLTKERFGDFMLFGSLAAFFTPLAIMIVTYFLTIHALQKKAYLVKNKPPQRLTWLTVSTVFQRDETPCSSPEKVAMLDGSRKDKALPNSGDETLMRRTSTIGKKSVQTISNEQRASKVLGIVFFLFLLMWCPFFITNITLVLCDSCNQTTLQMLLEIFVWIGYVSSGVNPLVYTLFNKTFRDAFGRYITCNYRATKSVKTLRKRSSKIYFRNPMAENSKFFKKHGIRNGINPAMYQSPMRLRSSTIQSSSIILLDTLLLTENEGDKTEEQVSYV", "assay_type": "functional, cell-based"}, "[2]": {"target": "T1, Amine oxidase [flavin-containing] A (Homo sapiens, UniProt P21397)", "T1 sequence (P21397 whole entry)": "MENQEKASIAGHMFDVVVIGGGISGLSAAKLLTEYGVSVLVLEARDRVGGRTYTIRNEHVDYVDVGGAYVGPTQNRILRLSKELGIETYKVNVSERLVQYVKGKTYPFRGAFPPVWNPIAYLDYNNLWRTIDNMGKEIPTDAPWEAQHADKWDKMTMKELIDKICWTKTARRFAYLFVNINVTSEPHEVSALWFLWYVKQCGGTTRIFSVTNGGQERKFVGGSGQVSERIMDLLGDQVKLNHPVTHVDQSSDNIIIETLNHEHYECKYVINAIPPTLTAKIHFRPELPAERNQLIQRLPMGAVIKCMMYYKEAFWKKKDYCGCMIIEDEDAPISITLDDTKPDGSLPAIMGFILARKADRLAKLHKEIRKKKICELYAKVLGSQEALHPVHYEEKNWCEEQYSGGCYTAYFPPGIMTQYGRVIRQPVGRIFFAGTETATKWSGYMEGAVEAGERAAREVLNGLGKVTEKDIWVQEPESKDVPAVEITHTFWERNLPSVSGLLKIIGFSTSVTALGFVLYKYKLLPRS", "assay_type": "functional"}, "[3]": {"target": "Sodium-dependent noradrenaline transporter (Homo sapiens, UniProt P23975)", "sequence (P23975 whole entry)": "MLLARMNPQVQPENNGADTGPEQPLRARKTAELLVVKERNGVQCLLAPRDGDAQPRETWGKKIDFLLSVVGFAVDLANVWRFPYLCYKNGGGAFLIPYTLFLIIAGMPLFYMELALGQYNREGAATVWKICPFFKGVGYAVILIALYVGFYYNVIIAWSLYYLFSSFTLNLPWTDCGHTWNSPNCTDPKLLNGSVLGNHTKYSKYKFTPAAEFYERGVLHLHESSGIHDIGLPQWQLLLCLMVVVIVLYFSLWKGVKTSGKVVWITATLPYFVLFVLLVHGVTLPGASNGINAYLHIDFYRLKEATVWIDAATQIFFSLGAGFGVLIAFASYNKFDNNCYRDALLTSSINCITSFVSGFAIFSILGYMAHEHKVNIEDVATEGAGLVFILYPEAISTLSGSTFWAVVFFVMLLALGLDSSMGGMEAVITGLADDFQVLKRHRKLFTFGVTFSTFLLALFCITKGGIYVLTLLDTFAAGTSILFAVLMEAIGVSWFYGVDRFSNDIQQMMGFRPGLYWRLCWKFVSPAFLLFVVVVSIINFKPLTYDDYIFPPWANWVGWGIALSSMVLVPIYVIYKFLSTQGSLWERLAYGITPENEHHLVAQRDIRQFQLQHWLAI"}, "[4]": {"target": "T2, Type-1 angiotensin II receptor (Homo sapiens, UniProt P30556)", "T2 sequence (P30556 whole entry)": "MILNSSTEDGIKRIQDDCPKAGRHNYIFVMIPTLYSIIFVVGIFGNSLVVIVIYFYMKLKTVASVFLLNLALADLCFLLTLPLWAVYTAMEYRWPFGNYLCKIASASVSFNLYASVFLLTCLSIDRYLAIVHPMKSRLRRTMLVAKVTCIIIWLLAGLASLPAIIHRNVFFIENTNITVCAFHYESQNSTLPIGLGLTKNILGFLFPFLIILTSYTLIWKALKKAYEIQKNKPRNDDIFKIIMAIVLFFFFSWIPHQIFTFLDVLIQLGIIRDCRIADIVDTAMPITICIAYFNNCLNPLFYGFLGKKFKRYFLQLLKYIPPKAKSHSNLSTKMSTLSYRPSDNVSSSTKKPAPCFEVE"}, "[5]": {"target": "cGMP-inhibited 3',5'-cyclic phosphodiesterase 3A (Homo sapiens, UniProt Q14432)", "sequence (Q14432 whole entry)": "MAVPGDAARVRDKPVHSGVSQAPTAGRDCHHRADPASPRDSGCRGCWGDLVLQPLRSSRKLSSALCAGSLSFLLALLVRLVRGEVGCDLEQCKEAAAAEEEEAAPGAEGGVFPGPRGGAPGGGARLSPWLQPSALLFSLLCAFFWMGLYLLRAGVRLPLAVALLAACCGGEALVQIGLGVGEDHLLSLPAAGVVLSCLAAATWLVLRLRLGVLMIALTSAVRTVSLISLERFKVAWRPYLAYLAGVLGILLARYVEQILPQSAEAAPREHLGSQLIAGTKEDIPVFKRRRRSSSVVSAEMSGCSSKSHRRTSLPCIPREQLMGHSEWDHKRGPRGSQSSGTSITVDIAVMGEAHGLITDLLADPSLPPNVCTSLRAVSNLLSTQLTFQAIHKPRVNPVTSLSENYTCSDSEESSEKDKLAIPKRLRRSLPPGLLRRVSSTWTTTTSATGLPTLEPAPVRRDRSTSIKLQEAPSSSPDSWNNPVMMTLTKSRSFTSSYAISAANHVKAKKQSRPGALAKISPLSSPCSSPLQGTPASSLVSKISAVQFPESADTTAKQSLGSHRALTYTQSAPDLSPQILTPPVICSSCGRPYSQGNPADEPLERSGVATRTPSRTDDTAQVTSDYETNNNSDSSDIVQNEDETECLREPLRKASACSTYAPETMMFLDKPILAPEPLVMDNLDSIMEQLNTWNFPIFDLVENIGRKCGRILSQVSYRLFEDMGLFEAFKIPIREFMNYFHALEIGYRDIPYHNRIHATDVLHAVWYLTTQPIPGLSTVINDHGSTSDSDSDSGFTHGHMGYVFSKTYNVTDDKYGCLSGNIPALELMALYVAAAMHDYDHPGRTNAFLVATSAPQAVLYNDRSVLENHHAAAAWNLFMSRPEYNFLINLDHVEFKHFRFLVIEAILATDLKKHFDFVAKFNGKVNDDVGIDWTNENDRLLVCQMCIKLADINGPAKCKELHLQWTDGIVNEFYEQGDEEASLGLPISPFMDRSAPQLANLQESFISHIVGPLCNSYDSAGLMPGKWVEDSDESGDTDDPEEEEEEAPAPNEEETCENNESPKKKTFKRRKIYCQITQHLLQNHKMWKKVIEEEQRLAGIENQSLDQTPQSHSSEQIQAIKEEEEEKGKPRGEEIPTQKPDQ", "assay_type": "functional"}, "[6]": {"target": "T3, Muscarinic acetylcholine receptor M2 (Homo sapiens, UniProt P08172)", "T3 sequence (P08172 whole entry)": "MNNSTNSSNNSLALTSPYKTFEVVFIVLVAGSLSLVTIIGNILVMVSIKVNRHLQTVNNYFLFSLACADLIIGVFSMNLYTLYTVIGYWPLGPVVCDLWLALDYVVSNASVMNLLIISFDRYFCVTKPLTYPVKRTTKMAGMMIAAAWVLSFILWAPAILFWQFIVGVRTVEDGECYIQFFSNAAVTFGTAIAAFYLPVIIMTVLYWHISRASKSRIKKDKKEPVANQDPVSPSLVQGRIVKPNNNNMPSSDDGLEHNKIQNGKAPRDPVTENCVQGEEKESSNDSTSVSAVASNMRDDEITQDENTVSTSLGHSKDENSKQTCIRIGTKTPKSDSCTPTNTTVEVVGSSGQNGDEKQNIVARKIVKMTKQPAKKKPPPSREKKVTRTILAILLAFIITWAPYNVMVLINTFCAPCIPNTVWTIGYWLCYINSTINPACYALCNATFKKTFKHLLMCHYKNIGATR", "assay_type": "functional, cell-based"}, "[7]": {"target": "T4, Thromboxane A2 receptor (Homo sapiens, UniProt P21731)", "T4 sequence (P21731 whole entry)": "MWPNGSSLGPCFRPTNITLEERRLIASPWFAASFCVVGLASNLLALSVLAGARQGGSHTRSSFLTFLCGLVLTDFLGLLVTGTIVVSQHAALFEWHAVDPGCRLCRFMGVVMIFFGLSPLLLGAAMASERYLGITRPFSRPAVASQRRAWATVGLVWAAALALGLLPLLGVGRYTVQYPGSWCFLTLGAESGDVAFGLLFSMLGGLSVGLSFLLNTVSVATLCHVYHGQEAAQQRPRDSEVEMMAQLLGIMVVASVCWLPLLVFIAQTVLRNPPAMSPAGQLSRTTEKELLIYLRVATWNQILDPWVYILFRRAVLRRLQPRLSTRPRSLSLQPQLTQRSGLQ"}, "[8]": {"target": "Kappa-type opioid receptor (Homo sapiens, UniProt P41145)", "sequence (P41145 whole entry)": "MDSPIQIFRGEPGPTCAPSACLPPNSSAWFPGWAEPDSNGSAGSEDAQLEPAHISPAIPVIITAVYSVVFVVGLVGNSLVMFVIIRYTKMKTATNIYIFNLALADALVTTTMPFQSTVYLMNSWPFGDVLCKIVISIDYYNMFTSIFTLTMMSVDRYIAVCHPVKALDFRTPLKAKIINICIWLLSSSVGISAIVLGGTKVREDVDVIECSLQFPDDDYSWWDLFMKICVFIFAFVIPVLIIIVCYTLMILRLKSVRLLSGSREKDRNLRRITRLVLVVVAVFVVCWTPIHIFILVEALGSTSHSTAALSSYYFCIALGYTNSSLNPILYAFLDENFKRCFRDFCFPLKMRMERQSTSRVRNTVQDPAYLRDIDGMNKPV"}, "[9]": {"target": "D(3) dopamine receptor (Homo sapiens, UniProt P35462)", "sequence (P35462 whole entry)": "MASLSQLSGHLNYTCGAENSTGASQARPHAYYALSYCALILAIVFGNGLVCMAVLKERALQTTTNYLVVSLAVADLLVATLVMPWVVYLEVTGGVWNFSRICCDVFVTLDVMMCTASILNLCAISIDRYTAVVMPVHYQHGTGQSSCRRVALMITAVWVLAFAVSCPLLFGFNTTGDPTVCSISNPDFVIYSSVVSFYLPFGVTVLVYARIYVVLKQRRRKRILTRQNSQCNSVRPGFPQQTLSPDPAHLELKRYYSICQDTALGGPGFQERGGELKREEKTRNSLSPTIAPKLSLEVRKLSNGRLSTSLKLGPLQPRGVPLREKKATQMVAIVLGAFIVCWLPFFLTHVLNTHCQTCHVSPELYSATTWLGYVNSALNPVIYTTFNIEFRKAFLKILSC"}, "[10]": {"target": "Melanocortin receptor 3 (Homo sapiens, UniProt P41968)", "sequence (P41968 whole entry)": "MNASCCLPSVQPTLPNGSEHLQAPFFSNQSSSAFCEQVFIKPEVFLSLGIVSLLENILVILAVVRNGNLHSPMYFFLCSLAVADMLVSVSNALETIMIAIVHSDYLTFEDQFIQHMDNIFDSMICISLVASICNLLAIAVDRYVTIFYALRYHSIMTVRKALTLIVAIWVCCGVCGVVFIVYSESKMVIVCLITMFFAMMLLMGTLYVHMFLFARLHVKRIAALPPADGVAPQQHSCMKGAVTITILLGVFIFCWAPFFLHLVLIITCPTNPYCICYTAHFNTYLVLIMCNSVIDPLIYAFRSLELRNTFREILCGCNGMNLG"}, "[11]": {"target": "T5, Cannabinoid receptor 1 (Homo sapiens, UniProt P21554)", "T5 sequence (P21554 whole entry)": "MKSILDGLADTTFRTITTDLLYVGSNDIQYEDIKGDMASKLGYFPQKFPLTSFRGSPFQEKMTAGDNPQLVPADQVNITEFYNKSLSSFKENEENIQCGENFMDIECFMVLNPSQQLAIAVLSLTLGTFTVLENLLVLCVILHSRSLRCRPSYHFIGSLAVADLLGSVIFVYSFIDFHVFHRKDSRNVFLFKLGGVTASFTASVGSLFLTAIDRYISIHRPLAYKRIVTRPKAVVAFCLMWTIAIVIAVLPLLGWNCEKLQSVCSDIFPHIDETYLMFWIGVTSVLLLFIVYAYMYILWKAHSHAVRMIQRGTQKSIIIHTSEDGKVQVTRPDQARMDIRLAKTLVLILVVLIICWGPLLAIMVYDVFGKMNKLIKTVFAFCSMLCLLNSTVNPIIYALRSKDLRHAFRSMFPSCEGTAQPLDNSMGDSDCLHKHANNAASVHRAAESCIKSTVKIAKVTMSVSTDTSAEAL", "assay_type": "functional, cell-based"}, "[12]": {"target": "T5, Cannabinoid receptor 1"}}, "data": [{"molecule": "N[C@@H](CC(=O)N1CCn2c(nnc2C(F)(F)F)C1)Cc1cc(F)c(F)cc1F", "note": "[SITAGLIPTIN]", "values": [{"measurement": "AC50", "setting": "[1]", "value": "> 30", "unit": "µM"}, {"measurement": "AC50", "setting": "[2]", "value": "> 30", "unit": "µM"}, {"measurement": "AC50", "setting": "[3]", "value": "> 30", "unit": "µM"}, {"measurement": "AC50", "setting": "[4]", "value": "> 30", "unit": "µM"}, {"measurement": "AC50", "setting": "[5]", "value": "> 30", "unit": "µM"}, {"measurement": "AC50", "setting": "[6]", "value": "> 30", "unit": "µM"}, {"measurement": "AC50", "setting": "[7]", "value": "> 10", "unit": "µM"}, {"measurement": "AC50", "setting": "[8]", "value": "> 10", "unit": "µM"}, {"measurement": "AC50", "setting": "[9]", "value": "> 30", "unit": "µM"}, {"measurement": "AC50", "setting": "[10]", "value": "> 30", "unit": "µM"}, {"measurement": "AC50", "setting": "[11]", "value": "> 30", "unit": "µM"}, {"measurement": "AC50", "setting": "[12]", "value": "> 10", "unit": "µM"}]}, {"molecule": "CN(C)CCc1c[nH]c2ccc(Cn3cncn3)cc12", "note": "[RIZATRIPTAN]", "values": [{"measurement": "AC50", "setting": "[1]", "value": 14, "unit": "µM"}, {"measurement": "AC50", "setting": "[2]", "value": "> 30", "unit": "µM"}, {"measurement": "AC50", "setting": "[3]", "value": "> 10", "unit": "µM"}, {"measurement": "AC50", "setting": "[4]", "value": "> 30", "unit": "µM"}, {"measurement": "AC50", "setting": "[5]", "value": "> 30", "unit": "µM"}, {"measurement": "AC50", "setting": "[6]", "value": "> 30", "unit": "µM"}, {"measurement": "AC50", "setting": "[7]", "value": "> 30", "unit": "µM"}, {"measurement": "AC50", "setting": "[8]", "value": "> 30", "unit": "µM"}, {"measurement": "AC50", "setting": "[9]", "value": "> 30", "unit": "µM"}, {"measurement": "AC50", "setting": "[10]", "value": "> 30", "unit": "µM"}, {"measurement": "AC50", "setting": "[11]", "value": "> 30", "unit": "µM"}, {"measurement": "AC50", "setting": "[12]", "value": "> 10", "unit": "µM"}]}, {"molecule": "COc1ccccc1Oc1c(NS(=O)(=O)c2ccc(C(C)(C)C)cc2)nc(-c2ncccn2)nc1OCCO", "note": "[BOSENTAN]", "values": [{"measurement": "AC50", "setting": "[1]", "value": "> 10", "unit": "µM"}, {"measurement": "AC50", "setting": "[2]", "value": "> 10", "unit": "µM"}, {"measurement": "AC50", "setting": "[3]", "value": "> 30", "unit": "µM"}, {"measurement": "AC50", "setting": "[4]", "value": "> 30", "unit": "µM"}, {"measurement": "AC50", "setting": "[5]", "value": "> 30", "unit": "µM"}, {"measurement": "AC50", "setting": "[6]", "value": "> 10", "unit": "µM"}, {"measurement": "AC50", "setting": "[7]", "value": "> 30", "unit": "µM"}, {"measurement": "AC50", "setting": "[8]", "value": "> 10", "unit": "µM"}, {"measurement": "AC50", "setting": "[9]", "value": "> 30", "unit": "µM"}, {"measurement": "AC50", "setting": "[10]", "value": "> 30", "unit": "µM"}, {"measurement": "AC50", "setting": "[11]", "value": "> 30", "unit": "µM"}, {"measurement": "AC50", "setting": "[12]", "value": "> 10", "unit": "µM"}]}]}
